Assay results taken from ChEMBL document CHEMBL4342421, “Current scenario of tetrazole hybrids for antibacterial activity” (Eur J Med Chem, 2019).
Converted amounts (≈) assume the structure as drawn.

Assays:
[1] = test system: Salmonella typhimurium; experiment: Antimicrobial activity against Salmonella typhimurium; type: functional, Salmonella enterica subsp. enterica serovar Typhimurium; details: Salmonella enterica
[2] = test system: Bacillus subtilis; experiment: Antimicrobial activity against Bacillus subtilis; type: functional
[3] = test system: Bacillus thuringiensis; experiment: Antimicrobial activity against Bacillus thuringiensis; type: functional
[4] = test system: Streptococcus pneumoniae; experiment: Antimicrobial activity against Streptococcus pneumoniae; type: functional
[5] = test system: Prescottella equi; experiment: Antimicrobial activity against Rhodococcus equi; type: functional; details: Rhodococcus (subgen. Prescottella) equi
[6] = test system: Proteus vulgaris; experiment: Antimicrobial activity against Proteus vulgaris; type: functional
[7] = test system: Proteus mirabilis; experiment: Antimicrobial activity against Proteus mirabilis; type: functional
[8] = test system: Aspergillus niger; experiment: Antifungal activity against Aspergillus niger; type: functional
[9] = test system: Aspergillus flavus; experiment: Antifungal activity against Aspergillus flavus; type: functional
[10] = test system: Fusarium oxysporum; experiment: Antifungal activity against Fusarium oxysporum; type: functional
[11] = test system: Streptococcus agalactiae; experiment: Antimicrobial activity against Streptococcus agalactiae 55118 assessed as zone of inhibition at 100 ug/ml after 24 hrs by disc diffusion method; type: functional; details: Streptococcus agalactiae, 55118, 24 h; read-out: IZ
[12] = test system: Staphylococcus aureus; experiment: Antimicrobial activity against Staphylococcus aureus ATCC 25923 assessed as zone of inhibition at 100 ug/ml after 24 hrs by disc diffusion method; type: functional; details: ATCC 25923, 24 h, read-out: IZ
[13] = test system: Klebsiella pneumoniae; experiment: Antimicrobial activity against Klebsiella pneumoniae ATCC 700603 assessed as zone of inhibition at 100 ug/ml after 24 hrs by disc diffusion method; type: functional; details: ATCC 700603, 24 h, read-out: IZ
[14] = test system: Pseudomonas aeruginosa; experiment: Antimicrobial activity against Pseudomonas aeruginosa ATCC 27853 after 24 hrs by two-fold broth serial dilution method; type: functional; details: ATCC 27853, 24 h
[15] = test system: Candida albicans; experiment: Antifungal activity against Candida albicans; type: functional
[16] = test system: Pseudomonas aeruginosa; experiment: Antimicrobial activity against Pseudomonas aeruginosa; type: functional
[17] = test system: Staphylococcus aureus; experiment: Antibacterial activity against methicillin resistant Staphylococcus aureus N315 after 24 hrs by two-fold broth serial dilution method; type: functional; details: N315, 24 h
[18] = test system: Cyberlindnera jadinii; experiment: Antifungal activity against Candida utilis after 24 hrs; type: functional; details: Williopsis jadinii
[19] = test system: Staphylococcus aureus; experiment: Antimicrobial activity against Staphylococcus aureus; type: functional
[20] = test system: Escherichia coli; experiment: Antimicrobial activity against Escherichia coli JM 109 after 24 hrs by two-fold broth serial dilution method; type: functional; details: JM 109, 24 h
[21] = test system: Shigella dysenteriae; experiment: Antimicrobial activity against Shigella dysenteriae after 24 hrs by two-fold broth serial dilution method; type: functional
[22] = test system: Candida albicans; experiment: Antifungal activity against Candida albicans ATCC 76615 after 24 hrs; type: functional; details: ATCC 76615, 24 h
[23] = test system: Saccharomyces cerevisiae; experiment: Antifungal activity against Saccharomyces cerevisiae after 24 hrs; type: functional
[24] = test system: Aspergillus flavus; experiment: Antifungal activity against Aspergillus flavus after 24 hrs; type: functional
[25] = test system: Pichia norvegensis; experiment: Antifungal activity against Candida mycoderma after 24 hrs; type: functional
[26] = test system: Micrococcus luteus; experiment: Antibacterial activity against Micrococcus luteus ATCC 4698 after 24 hrs by two-fold broth serial dilution method; type: functional; details: ATCC 4698, 24 h
[27] = test system: Bacillus subtilis; experiment: Antibacterial activity against Bacillus subtilis ATCC 21216 after 24 hrs by two-fold broth serial dilution method; type: functional; details: ATCC 21216, 24 h
[28] = test system: Escherichia coli; experiment: Antimicrobial activity against Escherichia coli; type: functional
[29] = test system: Staphylococcus aureus; experiment: Antimicrobial activity against Staphylococcus aureus assessed as zone of inhibition at 5 mg/ml; type: functional; details: read-out: IZ
[30] = test system: Klebsiella pneumoniae; experiment: Antimicrobial activity against Klebsiella pneumoniae assessed as zone of inhibition at 5 mg/ml; type: functional; details: read-out: IZ
[31] = test system: Pseudomonas aeruginosa; experiment: Antimicrobial activity against Pseudomonas aeruginosa assessed as zone of inhibition at 5 mg/ml; type: functional; details: read-out: IZ
[32] = test system: Escherichia coli; experiment: Antimicrobial activity against Escherichia coli assessed as zone of inhibition at 5 mg/ml; type: functional; details: read-out: IZ

Cc1nnc(SCC2=C(C(=O)O)N3C(=O)[C@@H](NC(=O)Cn4cnnn4)[C@H]3SC2)s1 [CEFAZOLIN]
MIC [1]: 0.063 to 8 µg/mL (≈ 0.139 to 17.6 µM) | MIC [2]: 0.063 to 8 µg/mL (≈ 0.139 to 17.6 µM) | MIC [3]: 0.063 to 8 µg/mL (≈ 0.139 to 17.6 µM) | MIC [4]: 0.063 to 8 µg/mL (≈ 0.139 to 17.6 µM) | MIC [5]: 0.063 to 8 µg/mL (≈ 0.139 to 17.6 µM) | MIC [6]: 0.063 to 8 µg/mL (≈ 0.139 to 17.6 µM) | MIC [7]: 0.063 to 8 µg/mL (≈ 0.139 to 17.6 µM)

CO/N=C(\C(=O)N[C@@H]1C(=O)N2C(C(=O)O)=C(CSc3nc(=O)c(O)nn3C)CS[C@H]12)c1csc(N)n1 [CEFTRIAXONE]
MIC [1]: 0.063 to 8 µg/mL (≈ 0.114 to 14.4 µM) | MIC [2]: 0.063 to 8 µg/mL (≈ 0.114 to 14.4 µM) | MIC [3]: 0.063 to 8 µg/mL (≈ 0.114 to 14.4 µM) | MIC [4]: 0.063 to 8 µg/mL (≈ 0.114 to 14.4 µM) | MIC [5]: 0.063 to 8 µg/mL (≈ 0.114 to 14.4 µM) | MIC [6]: 0.063 to 8 µg/mL (≈ 0.114 to 14.4 µM) | MIC [7]: 0.063 to 8 µg/mL (≈ 0.114 to 14.4 µM)

Clc1ccccc1C(c1ccccc1)(c1ccccc1)n1ccnc1 [CLOTRIMAZOLE]
MIC [8]: 100 µg/mL (≈ 290 µM) | MIC [9]: 100 µg/mL (≈ 290 µM) | MIC [10]: 100 µg/mL (≈ 290 µM)

CC[C@H]1OC(=O)[C@H](C)[C@@H](O[C@H]2C[C@@](C)(OC)[C@@H](O)[C@H](C)O2)[C@H](C)[C@@H](O[C@@H]2O[C@H](C)C[C@H](N(C)C)[C@H]2O)[C@](C)(O)C[C@@H](C)C(=O)[C@H](C)[C@@H](O)[C@]1(C)O [ERYTHROMYCIN]
zone of inhibition at 100 µg/mL [11]: 10 to 24 mm | zone of inhibition at 100 µg/mL [12]: 10 to 24 mm | zone of inhibition at 100 µg/mL [13]: 10 to 24 mm

OC(Cn1cncn1)(Cn1cncn1)c1ccc(F)cc1F [FLUCONAZOLE]
MIC [14]: 1 to 256 µg/mL (≈ 3.27 to 836 µM) | MIC [15]: 25 µg/mL (≈ 81.6 µM) | MIC [16]: 25 µg/mL (≈ 81.6 µM) | MIC [17]: 1 to 256 µg/mL (≈ 3.27 to 836 µM) | MIC [18]: 1 to 256 µg/mL (≈ 3.27 to 836 µM) | MIC [8]: 25 µg/mL (≈ 81.6 µM) | MIC [19]: 25 µg/mL (≈ 81.6 µM) | MIC [20]: 1 to 256 µg/mL (≈ 3.27 to 836 µM) | MIC [21]: 1 to 256 µg/mL (≈ 3.27 to 836 µM) | MIC [22]: 1 to 256 µg/mL (≈ 3.27 to 836 µM) | MIC [23]: 1 to 256 µg/mL (≈ 3.27 to 836 µM) | MIC [24]: 1 to 256 µg/mL (≈ 3.27 to 836 µM) | MIC [25]: 1 to 256 µg/mL (≈ 3.27 to 836 µM) | MIC [26]: 1 to 256 µg/mL (≈ 3.27 to 836 µM) | MIC [27]: 1 to 256 µg/mL (≈ 3.27 to 836 µM) | MIC [28]: 25 µg/mL (≈ 81.6 µM)

CCn1cc(C(=O)O)c(=O)c2cc(F)c(N3CCNCC3)cc21 [NORFLOXACIN]
MIC [14]: 1 to 16 µg/mL (≈ 3.13 to 50.1 µM) | MIC [17]: 1 to 16 µg/mL (≈ 3.13 to 50.1 µM) | MIC [18]: 1 to 16 µg/mL (≈ 3.13 to 50.1 µM) | MIC [20]: 1 to 16 µg/mL (≈ 3.13 to 50.1 µM) | MIC [21]: 1 to 16 µg/mL (≈ 3.13 to 50.1 µM) | MIC [22]: 1 to 16 µg/mL (≈ 3.13 to 50.1 µM) | MIC [23]: 1 to 16 µg/mL (≈ 3.13 to 50.1 µM) | MIC [24]: 1 to 16 µg/mL (≈ 3.13 to 50.1 µM) | MIC [25]: 1 to 16 µg/mL (≈ 3.13 to 50.1 µM) | MIC [26]: 1 to 16 µg/mL (≈ 3.13 to 50.1 µM) | MIC [27]: 1 to 16 µg/mL (≈ 3.13 to 50.1 µM)

CCn1cc(C(=O)O)c(=O)c2cc(F)c(N3CCN(C)CC3)cc21 [PEFLOXACIN]
zone of inhibition at 5000 µg/mL [29]: 28 to 36 mm | zone of inhibition at 5000 µg/mL [30]: 28 to 36 mm | zone of inhibition at 5000 µg/mL [31]: 28 to 36 mm | zone of inhibition at 5000 µg/mL [32]: 28 to 36 mm
